In brackets after ≈: the same amount, converted by molar mass.
What was measured:
Type in all cases: cell-based
E. coli W3110PA = experiment: microbe, parasite or virus in culture; settings: E. coli with native lpxC replaced by that of P. aeruginosa; for MIC: Escherichia coli, W3110PA
[1] = test system: N. gonorrhoeae 35/02 (drug-resistant strain); experiment: Disk diffusion assay, N. gonorrhoeae 35/02; settings: disc 6 mm; for zone of inhibition at 0.2 µg/disc / zone of inhibition at 2 µg/disc / zone of inhibition at 20 µg/disc: Neisseria gonorrhoeae, read-out: diameter of the growth inhibition, 35/02
Method: (§1) An assay was performed on two strains of Acinetobacter Baumannii: antibiotic susceptible strain (Sus. A.b. Isolate), and multidrug-resistant strains (MDR A.b. Isolate). […] Activity is measured as the diameter (in mm) of the growth inhibition.

[2] = test system: N. gonorrhoeae FA19 (a drug-sensitive strain); experiment: Disk diffusion assay, N. gonorrhoeae FA19; settings: disc 6 mm
Method: as §1

[3] = test system: N. gonorrhoeae F89 (high-level cefixime and ceftriaxone resistance); experiment: Disk diffusion assay, N. gonorrhoeae F89; settings: disc 6 mm; for zone of inhibition at 0.2 µg/disc / zone of inhibition at 2 µg/disc / zone of inhibition at 20 µg/disc: Neisseria gonorrhoeae, read-out: diameter of the growth inhibition, F89
Method: as §1

P. aeruginosa PAO1 = experiment: MIC assay, P. aeruginosa PAO1; settings: for MIC: Pseudomonas aeruginosa
N. gonorrhoeae H041 = experiment: Disk diffusion assay, N. gonorrhoeae H041; settings: disc 6 mm; for zone of inhibition at 0.2 µg/disc / zone of inhibition at 2 µg/disc / zone of inhibition at 20 µg/disc: Neisseria gonorrhoeae, read-out: diameter of the growth inhibition, H041; for zone of inhibition at 0.2 µg/disc: H041, 0.2 μg per disc; for zone of inhibition at 2 µg/disc: H041, 2.0 μg per disc; for zone of inhibition at 20 µg/disc: H041, 20 μg per disc
Method: as §1

E. coli W3110 = experiment: microbe, parasite or virus in culture; settings: wild-type E. coli W3110, 22 hours at 37° C., MTT; for MIC: Escherichia coli, W3110, 22 h
[4] = Neisseria gonorrhoeae, 2.0 μg per disc, read-out: diameter of the growth inhibition, FA19
[5] = Neisseria gonorrhoeae, 20 μg per disc, read-out: diameter of the growth inhibition, FA19

## CC(CCc1ccc(-c2ccccc2)cc1)(C(=O)NO)C(C)(O)C(F)F (single isomer, unassigned) [Example 3 Isomer A, 2-(2-(biphenyl-4-yl)ethyl)-4,4-difluoro-N,3-dihydroxy-2,3-dimethylbutanamide]
E. coli W3110PA; unit from b306, listed as 3 Isomer A
  MIC E. coli W3110PA: 3.1 µg/mL (≈ 8.53 µM)
[1]; 0.2 μg per disc
  zone of inhibition at 0.2 µg/disc: 0 mm
[1]; 2.0 μg per disc
  zone of inhibition at 2 µg/disc: 13 mm
[1]; 20 μg per disc
  zone of inhibition at 20 µg/disc: 19 mm
[2]; 0.2 μg per disc, listed as 3 (Isomer A)
  diameter of the growth inhibition, FA19: 11 mm
[2]; [4]
  zone of inhibition at 2 µg/disc: 20 mm
[2]; [5]
  zone of inhibition at 20 µg/disc: 30 mm
[3]; 0.2 μg per disc
  zone of inhibition at 0.2 µg/disc: 18 mm
[3]; 2.0 μg per disc
  zone of inhibition at 2 µg/disc: 27 mm
[3]; 20 μg per disc
  zone of inhibition at 20 µg/disc: 33 mm
P. aeruginosa PAO1; P. aeruginosa PAO1, unit from b306, listed as 3 Isomer A
  MIC P. aeruginosa PAO1: 6.3 µg/mL (≈ 17.3 µM)
N. gonorrhoeae H041
  zone of inhibition at 0.2 µg/disc: 9 mm
  zone of inhibition at 2 µg/disc: 16 mm
  zone of inhibition at 20 µg/disc: 24 mm
E. coli W3110
  MIC: 50 µg/mL (≈ 138 µM)

## CC(NCCCc1ccc(-c2ccccc2)cc1)(C(=O)NO)C(C)(O)C(F)F.Cl (single isomer, unassigned) [Example 135]
[1]; 0.2 μg per disc
  diameter of the growth inhibition, 35/02: 8 mm
[1]; 2.0 μg per disc
  diameter of the growth inhibition, 35/02: 14 mm
[1]; 20 μg per disc
  diameter of the growth inhibition, 35/02: 19 mm
[2]; 0.2 μg per disc
  diameter of the growth inhibition, FA19: 8 mm
[2]; 2.0 μg per disc
  diameter of the growth inhibition, FA19: 19 mm
[2]; 20 μg per disc
  diameter of the growth inhibition, FA19: 26 mm
[3]; 0.2 μg per disc
  diameter of the growth inhibition, F89: 15 mm
[3]; 2.0 μg per disc
  diameter of the growth inhibition, F89: 27 mm
[3]; 20 μg per disc
  diameter of the growth inhibition, F89: 30 mm
P. aeruginosa PAO1; P. aeruginosa PAO1
  MIC P. aeruginosa PAO1: 20 µg/mL
N. gonorrhoeae H041; 0.2 μg per disc
  diameter of the growth inhibition, H041: 8 mm
N. gonorrhoeae H041; 2.0 μg per disc
  diameter of the growth inhibition, H041: 14 mm
N. gonorrhoeae H041; 20 μg per disc
  diameter of the growth inhibition, H041: 23 mm
E. coli W3110
  MIC E. coli W3110: 10 µg/mL

## CC(C)(O)C(C)(CCc1ccc(-c2ccccc2)cc1)C(=O)NO (centres unmarked) [Example 2, 2-(2-(biphenyl-4-yl)ethyl)-N,3-dihydroxy-2,3-dimethylbutanamide]
E. coli W3110PA
  MIC: 25 µg/mL (≈ 76.4 µM)
P. aeruginosa PAO1; PAO1, P. aeruginosa PAO1
  MIC: 25 µg/mL (≈ 76.4 µM)
E. coli W3110
  MIC: > 50 µg/mL

## CC(CCn1ccc(-c2ccc(-n3nccn3)cc2)cc1=O)(C(=O)NO)C(C)(O)C(F)F (centres unmarked) [Example 4, 2-(2-(4-(4-(2H-1,2,3-triazol-2-yl)phenyl)-2-oxopyridin-1 (2H)-yl)ethyl)-4,4-difluoro-N,3-dihydroxy-2,3-dimethylbutanamide]
E. coli W3110PA
  MIC: 3.13 µg/mL (≈ 7 µM)
[1]; 0.2 μg per disc
  zone of inhibition at 0.2 µg/disc: 0 mm
[1]; 2.0 μg per disc
  zone of inhibition at 2 µg/disc: 11 mm
[1]; 20 μg per disc
  zone of inhibition at 20 µg/disc: 16 mm
[2]; Neisseria gonorrhoeae, 0.2 μg per disc, read-out: diameter of the growth inhibition, FA19
  zone of inhibition at 0.2 µg/disc: 0 mm
[2]; [4]
  zone of inhibition at 2 µg/disc: 8 mm
[2]; [5]
  zone of inhibition at 20 µg/disc: 19 mm
[3]; 0.2 μg per disc
  zone of inhibition at 0.2 µg/disc: 7 mm
[3]; 2.0 μg per disc
  zone of inhibition at 2 µg/disc: 15 mm
[3]; 20 μg per disc
  zone of inhibition at 20 µg/disc: 26 mm
N. gonorrhoeae H041
  zone of inhibition at 0.2 µg/disc: 7 mm
  zone of inhibition at 2 µg/disc: 10 mm
  zone of inhibition at 20 µg/disc: 16 mm
E. coli W3110
  MIC: 3.12 µg/mL (≈ 6.97 µM)

## CC(NCc1ccc(-c2ccccc2)cc1)(C(=O)NO)C(C)(O)C(F)F (centres unmarked) [Example 6, 2-(biphenyl-4-ylmethylamino)-4,4-difluoro-N,3-dihydroxy-2,3-dimethylbutanamide]
E. coli W3110PA
  MIC: 12.5 µg/mL (≈ 34.3 µM)
[2]; [4]
  zone of inhibition at 2 µg/disc: 22 mm
P. aeruginosa PAO1; P. aeruginosa PAO1
  MIC: 12.5 µg/mL (≈ 34.3 µM)
E. coli W3110
  MIC: > 50 µg/mL

## Cc1ccc(-c2ccc(CN[C@H](C(=O)NO)[C@](C)(O)C(F)F)s2)s1 [Example 7, (2S,3S)-4,4-difluoro-N,3-dihydroxy-3-methyl-2-((5′-methyl-2,2′-bithiophen-5-yl)methylamino)butanamide]
E. coli W3110PA
  MIC: 25 µg/mL (≈ 66.4 µM)
[2]; [4]
  zone of inhibition at 2 µg/disc: 21 mm
E. coli W3110
  MIC: 50 µg/mL (≈ 133 µM)

## C[C@@](O)(C(F)F)[C@H](NCc1ccc(-c2cccs2)s1)C(=O)NO [Example 8, (2S,3S)-2-(2,2′-bithiophen-5-ylmethylamino)-4,4-difluoro-N,3-dihydroxy-3-methylbutanamide]
E. coli W3110PA
  MIC: 25 µg/mL (≈ 69 µM)
[2]; [4]
  zone of inhibition at 2 µg/disc: 19 mm
E. coli W3110
  MIC: 25 µg/mL (≈ 69 µM)

Source: patent US10189786B2, “Antibacterial compounds” (Duke University, priority 2013, dated 2019)
